Counter-ions that a name gives are not always drawn.

Data set [1] relates to 697 cells. The data set can be described thus: Real-time cell growth by IncuCyte, 697. Format: cell-based, human. To be noted: 1 µM, 96 h; n = 3. On the procedure:
(§1) The cells were plated in 100 μL complete medium.

Data set [2] has as its system SupB15 cells. The data set can be described thus: Real-time cell growth by IncuCyte, SupB15. In kind it is cell-based, human. To be noted: 1 µM, 96 h; n = 3. The procedure:
as §1

The test system of data set [3] is TKO-EV cells (untransformed mouse BM pro-B cells). The data set can be described thus: Real-time cell growth analysis by IncuCyte, untransformed TKO-EV cells. The following applies: 1 µM, 96 h; n = 3.
Experimental: A flat-bottom 96-well plate was coated with 0.01% poly-L ornithine (#P4957, Sigma-Aldrich, Hamburg, Germany) for 1 h at room temperature (RT). BCR–ABL1, SupB15, and 697 cells were counted as 0.5 × 10^5 cells/well, while TKO-BCR–ABL1 and TKO-EV cells as 1 × 10^5 cells/well, which were labeled with IncuCyte Cytotox Red dye (#4632, Sartorius, Ulm, Germany) as per the manufacturer’s protocol. The cells were plated in 100 μL complete medium. […] Plate was prewarmed at 37 °C for 30 min prior to placing in the IncuCyte chamber. Scanning was conducted every two hours for total of 4 days. Images were acquired using a 20X objective in phase contrast and fluorescence mode at 4 images/well and analyzed using the cell-by-cell analysis module of IncuCyte software version 2020B (Essen Bioscience, Ann Arbor, MI, USA).
Data set [4] concerns CXCR4. To be noted: ref [14],[17]; cited from earlier work.
The subject of data set [5] is BCR–ABL1-transformed mouse B cells. The data set is described as follows: Real-time cell growth analysis by IncuCyte (GFP+ cell enrichment). In kind it is cell-based. To be noted: 1, 5 and 10 µM, over 96 h; n = 4–5.
Experimental: A flat-bottom 96-well plate was coated with 0.01% poly-L ornithine (#P4957, Sigma-Aldrich, Hamburg, Germany) for 1 h at room temperature (RT). […] The cells were plated in 100 μL complete medium. […] Plate was prewarmed at 37 °C for 30 min prior to placing in the IncuCyte chamber. Scanning was conducted every two hours for total of 4 days.

Regarding `Cc1ccc(NC(=O)c2ccc(CN3CCN(C)CC3)cc2)cc1Nc1nccc(-c2cccnc2)n1` [Imatinib, Imatinib mesylate, reference compound], the “697 cell growth vs DMSO” value in data set [1] is “no effect on the 697 cells”. In data set [2], the “SupB15 cell growth vs DMSO” value is “significantly reduced SupB15 cell growth”. In data set [3], the “Survival/growth of TKO-EV cells” value is “no effect on the TKO-EV cells”. For “ILRWSRK * (Glu-Pal)-NH2 [JM#192, fatty-acid-conjugated optimized EPI-X4 derivative]”, in data set [4], the CXCL12-induced calcium signaling entry is listed as “block CXCL12-induced calcium signaling”. On to “ILRWSRK * (Glu-Pal)LPCVS [JM#143, fatty-acid-conjugated optimized EPI-X4 derivative]”, for which the CXCL12-induced calcium signaling result in data set [4] is “block CXCL12-induced calcium signaling”. Consider ILRWSRKLPCVS [JM#21], for which, in data set [4], the CXCL12-induced calcium signaling result is listed as “block CXCL12-induced calcium signaling”.

Turning to “IVRWSKK * (Pal)VPCVS [JM#169, fatty-acid-conjugated optimized EPI-X4 derivative]”, the “GFP enrichment (BCR–ABL1 cell growth) vs DMSO” value in data set [5] is reported as “significant reduction in cell growth only after 72 h”. The CXCL12-induced calcium signaling entry in data set [4] is on record as “block CXCL12-induced calcium signaling”. As for “IVRWSKKVPCVS [WSC02, optimized 12-mer EPI-X4 derivative]”, the CXCL12-induced calcium signaling entry in data set [4] was “block CXCL12-induced calcium signaling”.

(Values after article PMC11312813, “An Optimized Peptide Antagonist of CXCR4 Limits Survival of BCR–ABL1-Transformed Cells in Philadelphia-Chromosome-Positive B-Cell Acute Lymphoblastic Leukemia” (International Journal of Molecular Sciences, 2024).)
